Patent publication US10513694B2, “Thienopyrrole compounds and uses thereof” (PROMEGA CORPORATION, priority 2015, dated 2019)
Values joined by “and” are separate entries in the source; they are usually repeats but may differ in a detail not shown here. Equal values may be shown once. Where a name gives a salt, the structure may show the parent alone. Read-outs that look alike come from different tables or passages of the source.

Target: NANOLUC® enzyme (Oplophorus gracilirostris, UniProt Q9GV45, A31E/A60N/A81I/F95D/I117V/K70R/L54V/L99Q/M102K/N193R/P142E/Q151K/Q38R/Q45L/V71I/Y165I)
Assay: Inhibitor IC50 determination (NANOLUC enzyme, furimazine)
Type: biochemical
Settings: 0.4 ng/ml NANOLUC enzyme, final furimazine 10 uM (at Km)
Procedure: The following example provides the IC50 values for the compounds disclosed herein. See Table 5 NANOLUC® enzyme was diluted to 0.4 ng/ml in CO2 independent media+10% FBS to make the detection reagent. A 3× dilution series of each inhibitor was then made in the detection reagent. A “no inhibitor” control was also made for each sample. 50 ul of each inhibitor dilution was mixed with 50 ul of NanoGlo buffer containing 20 uM furimazine. (Final furimazine concentration is 10 uM which is at Km.), and luminescence measured. Each sample was normalized to the “no inhibitor” control. The […] values were then determined using GraphPad Prism (log [inhibitor] vs. normalized response).

NANOLUC® enzyme, sequence (Q9GV45 28-196 with tags or gaps with the stated changes limits assumed): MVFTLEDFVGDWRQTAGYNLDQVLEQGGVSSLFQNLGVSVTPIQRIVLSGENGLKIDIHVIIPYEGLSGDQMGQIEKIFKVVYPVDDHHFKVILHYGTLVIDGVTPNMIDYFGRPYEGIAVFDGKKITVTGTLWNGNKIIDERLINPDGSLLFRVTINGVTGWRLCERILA

Molecule | IC50 (read-out: IC50) [µM] | IC50 (IC50 (uM))
N-(trans-4-((6-(3′,6′-dihydroxy-3-oxo-3H-spiro[isobenzofuran-1,9′-xanthene]-5(6)-carboxamido)hexyl)carbamoyl)cyclohexyl)-4-(2-(ethyl(m-tolyl)amino)-2-oxoethyl)-4H-thieno[3,2-b]pyrrole-5-carboxamide [JRW-0200] | 0.078 | 
CCOC(=O)Cc1ccc(NC(=O)c2cc3sccc3n2CC(=O)N(CC)c2cccc(C)c2)cc1 [JRW-0152, ethyl 2-(4-(4-(2-(ethyl(m-tolyl)amino)-2-oxoethyl)-4H-thieno[3,2-b]pyrrole-5-carboxamido)phenyl)acetate] |  | 4.3 µM
CCN(C(=O)Cn1c(C(=O)N[C@H]2CC[C@H](C(=O)OC)CC2)cc2sccc21)c1ccc(CO)cc1 [JRW-0335, Methyl trans-4-(4-(2-(ethyl(4-(hydroxymethyl)phenyl)amino)-2-oxoethyl)-4H-thieno[3,2-b]pyrrole-5-carboxamido)cyclohexane-1-carboxylate] |  | 1.9 µM
CCN(C(=O)Cn1c(C(=O)N[C@H]2CC[C@H](C(=O)NCCCCCCN)CC2)cc2sccc21)c1cccc(C)c1 [JRW-0241, N-(trans-4-((6-aminohexyl)carbamoyl)cyclohexyl)-4-(2-(ethyl(m-tolyl)amino)-2-oxoethyl)-4H-thieno[3,2-b]pyrrole-5-carboxamide hydrochloride] |  | 0.063 µM
CCN(C(=O)Cn1c(C(=O)N[C@H]2CC[C@H](C(=O)OC)CC2)cc2ccc(OC)cc21)c1cccc(C)c1 [JRW-0359, Methyl trans-4-(1-(2-(ethyl(m-tolyl)amino)-2-oxoethyl)-6-methoxy-1H-indole-2-carboxamido)cyclohexane-1-carboxylate] |  | 3 µM
COCCOCCN(C(=O)Cn1c(C(=O)NC2CCCCC2)cc2sccc21)c1cccc(C)c1 [JRW-0109, N-cyclohexyl-4-(2-((2-(2-methoxyethoxy)ethyl)(m-tolyl)amino)-2-oxoethyl)-4H-thieno[3,2-b]pyrrole-5-carboxamide] |  | 10.1 µM
Cc1cccc(NC(=O)Cn2c(C(=O)NC3CCCCC3)cc3sccc32)c1 [JRW-0081, N-cyclohexyl-4-(2-oxo-2-(m-tolylamino)ethyl)-4H-thieno[3,2-b]pyrrole-5-carboxamide] |  | 19.4 µM
CCc1cccc(N(CC)C(=O)Cn2c(C(=O)N[C@H]3CC[C@H](C(=O)OC)CC3)cc3sccc32)c1 [JRW-0326, Methyl trans-4-(4-(2-(ethyl(3-ethylphenyl)amino)-2-oxoethyl)-4H-thieno[3,2-b]pyrrole-5-carboxamido)cyclohexane-1-carboxylate] |  | 0.0039 µM
CCN(C(=O)Cn1c(C(=O)N[C@H]2CC[C@H](C(=O)NCCO)CC2)cc2sccc21)c1cccc(C)c1 [JRW-0043, 4-(2-(ethyl(m-tolyl)amino)-2-oxoethyl)-N-(trans-4-((2-hydroxyethyl)carbamoyl)cyclohexyl)-4H-thieno[3,2-b]pyrrole-5-carboxamide] |  | 0.84 µM
CCCCCCN(C(=O)Cn1c(C(=O)N[C@H]2CC[C@H](C(=O)OC)CC2)cc2sccc21)c1cccc(C)c1 [JRW-0149, methyl-trans-4-(4-(2-(hexyl(m-tolyl)amino)-2-oxoethyl)-4H-thieno[3,2-b]pyrrole-5-carboxamido)cyclohexane-1-carboxylate] |  | 2.5 µM
CCc1cccc(N(CC)C(=O)Cn2c(C(=O)N[C@H]3CC[C@H](C(=O)NCCCCCCO)CC3)cc3sccc32)c1 [JRW-0429, 4-(2-(Ethyl(3-ethylphenyl)amino)-2-oxoethyl)-N-(trans-4-((6-hydroxyhexyl)carbamoyl)cyclohexyl)-4H-thieno[3,2-b]pyrrole-5-carboxamide] |  | 0.0021 µM
CCN(C(=O)Cn1c(C(=O)N[C@H]2CC[C@H](C(=O)OC)CC2)cc2sccc21)c1cccc(CBr)c1 [JRW-0466, Methyl trans-4-(4-(2-((3-(bromomethyl)phenyl)(ethyl)amino)-2-oxoethyl)-4H-thieno[3,2-b]pyrrole-5-carboxamido)cyclohexane-1-carboxylate] |  | 0.0018 µM
CCN(C(=O)Cn1c(C(=O)N2CCCCC2)cc2sccc21)c1cccc(C)c1 [JRW-0009, N-ethyl-2-(5-(piperidine-1-carbonyl)-4H-thieno[3,2-b]pyrrol-4-yl)-N-(m-tolyl)acetamide] |  | 2.7 µM
CCN(C(=O)Cn1c(C(=O)N[C@H]2CC[C@H](C(N)=O)CC2)cc2sccc21)c1cccc(C)c1 [JRW-0052, N-(trans-4-carbamoylcyclohexyl)-4-(2-(ethyl(m-tolyl)amino)-2-oxoethyl)-4H-thieno[3,2-b]pyrrole-5-carboxamide] |  | 1.3 µM
CCN(C(=O)Cn1c(C(=O)N[C@H]2CC[C@H](C(=O)NC3CCN(C(C)=O)CC3)CC2)cc2sccc21)c1cccc(C)c1 [JRW-0195, N-(trans-4-((1-acetylpiperidin-4-yl)carbamoyl)cyclohexyl)-4-(2-(ethyl(m-tolyl)amino)-2-oxoethyl)-4H-thieno[3,2-b]pyrrole-5-carboxamide] |  | 0.48 µM
CCc1cccc(N(CC)C(=O)Cn2c(C(=O)N[C@H]3CC[C@H](C(=O)NCCCCCCS(=O)(=O)O)CC3)cc3ccccc32)c1 [JRW-0434, Sodium 6-(trans-4-(1-(2-(ethyl(3-ethylphenyl)amino)-2-oxoethyl)-1H-indole-2-carboxamido)cyclohexane-1-carboxamido)hexane-1-sulfonate] |  | 0.0019 µM
CCN(C(=O)Cn1c(C(=O)N[C@H]2CC[C@H](C(=O)OC)CC2)cc2ccsc21)c1cccc(C)c1 [JRW-0463, Methyl trans-4-(6-(2-(ethyl(m-tolyl)amino)-2-oxoethyl)-6H-thieno[2,3-b]pyrrole-5-carboxamido)cyclohexane-1-carboxylate] |  | 0.71 µM
CCN(C(=O)Cn1c(C(=O)Nc2ccccc2)cc2sccc21)c1cccc(C)c1 [JRW-0143, 4-(2-(ethyl(m-tolyl)amino)-2-oxoethyl)-N-phenyl-4H-thieno[3,2-b]pyrrole-5-carboxamide] |  | 2.8 µM and 2.6 µM
CCN(C(=O)Cn1c(C(=O)N[C@H]2CC[C@@H](C(=O)NCCCCCC(=O)O)CC2)cc2sccc21)c1cccc(C)c1 [JRW-0264, 6-(cis-4-(4-(2-(ethyl(m-tolyl)amino)-2-oxoethyl)-4H-thieno[3,2-b]pyrrole-5-carboxamido)cyclohexane-1-carboxamido)hexanoic acid] |  | 0.24 µM
CCN(C(=O)Cn1c(C(=O)NCCCCCCCC(=O)O)cc2sccc21)c1cccc(C)c1 [JRW-0198, 8-(4-(2-(ethyl(m-tolyl)amino)-2-oxoethyl)-4H-thieno[3,2-b]pyrrole-5-carboxamido)octanoic acid] |  | 1 µM
CCN(C(=O)Cn1c(C(=O)N[C@H]2CC[C@H](C(=O)OC)CC2)cc2sccc21)c1cccc(OC)c1 [JRW-0327, Methyl trans-4-(4-(2-(ethyl(3-methoxyphenyl)amino)-2-oxoethyl)-4H-thieno[3,2-b]pyrrole-5-carboxamido)cyclohexane-1-carboxylate] |  | 0.11 µM
CCN(C(=O)Cn1c(C(=O)NC2CCN(C(=O)CCCCC(=O)O)CC2)cc2sccc21)c1cccc(C)c1 [JRW-0208, 6-(4-(4-(2-(ethyl(m-tolyl)amino)-2-oxoethyl)-4H-thieno[3,2-b]pyrrole-5-carboxamido)piperidin-1-yl)-6-oxohexanoic acid] |  | 0.82 µM
CCCCCCN(C(=O)Cn1c(C(=O)NC2CCCCC2)cc2sccc21)c1cccc(C)c1 [JRW-0148, N-cyclohexyl-4-(2-(hexyl(m-tolyl)amino)-2-oxoethyl)-4H-thieno[3,2-b]pyrrole-5-carboxamide] |  | 5.3 µM
CCN(C(=O)Cn1c(C(=O)N[C@H]2CC[C@H](C(=O)OC)CC2)cc2sccc21)c1cccc(C(N)=O)c1 [JRW-0322, Methyl trans-4-(4-(2-((3-carbamoylphenyl)(ethyl)amino)-2-oxoethyl)-4H-thieno[3,2-b]pyrrole-5-carboxamido)cyclohexane-1-carboxylate] |  | 0.2 µM
CCN(C(=O)Cn1c(C(=O)N[C@H]2CC[C@H](C(=O)OC)CC2)cc2sccc21)c1cccc(C(C)C)c1 [JRW-0460, Methyl trans-4-(4-(2-(ethyl(3-isopropylphenyl)amino)-2-oxoethyl)-4H-thieno[3,2-b]pyrrole-5-carboxamido)cyclohexane-1-carboxylate] |  | 0.12 µM
CCN(C(=O)Cn1c(C(=O)Nc2cccc(C(=O)OC)c2)cc2sccc21)c1cccc(C)c1 [JRW-0151, methyl 3-(4-(2-(ethyl(m-tolyl)amino)-2-oxoethyl)-4H-thieno[3,2-b]pyrrole-5-carboxamido)benzoate] |  | 7 µM
CCN(C(=O)Cn1c(C(=O)N[C@H]2CC[C@@H](C(=O)OC)CC2)cc2sccc21)c1cccc(C)c1 [JRW-0041, methyl-cis-4-(4-(2-(ethyl(m-tolyl)amino)-2-oxoethyl)-4H-thieno[3,2-b]pyrrole-5-carboxamido)cyclohexane-1-carboxylate] |  | 0.2 µM
CCc1cccc(N(CC)C(=O)Cn2c(C(=O)N[C@H]3CC[C@H](C(=O)NCCCCCCS(=O)(=O)O)CC3)cc3sccc32)c1 [JRW-0432, Sodium 6-(trans-4-(4-(2-(ethyl(3-ethylphenyl)amino)-2-oxoethyl)-4H-thieno[3,2-b]pyrrole-5-carboxamido)cyclohexane-1-carboxamido)hexane-1-sulfonate] |  | 0.0031 µM
CCN(C(=O)Cn1c(C(=O)N[C@H]2CC[C@H](C(=O)OC)CC2)cc2sccc21)c1ccc(C)cc1 [JRW-0334, Methyl trans-4-(4-(2-(ethyl(p-tolyl)amino)-2-oxoethyl)-4H-thieno[3,2-b]pyrrole-5-carboxamido)cyclohexane-1-carboxylate] |  | 1.3 µM
